Data taken from patent US20230146455A1, “TREATMENT OF INFLAMMATORY DISEASES WITH PEPTIDES AND PHARMACEUTICAL COMPOSITIONS” (Yuyu Pharma, Inc., priority 2020, published 2023).
Several values for one entry are separate records, joined by “and”; a condition that tells them apart may be missing. Equal entries are not always repeated. Where a SMILES comes first, the peptide text is derived from it. [ ]: non-standard residue; d: D form. Hyp = O=C(O)[C@@H]1C[C@@H](O)CN1

Test system: IL-17A
Assay: Example 9 Luminex, LPS hPBMCs: IL-17A
Format: cell-based, human
Method: Treatment Human PBMCs were pretreated with YY-101, YDE-011 and YDE-043 or reference compound; Xiidra® at various concentration (ranging from 1 nM to 100 uM) for 2 h before stimulation. An equal volume of 0.5% DMSO was used as a vehicle control. Then, the cells were treated with LPS at 5 ug/ml. The supernatants from treated cells were harvested at 24 h and placed in a 96 well for Luminex cytokine & chemokine profiling using a Luminex 200 multiplex assay (Luminex; R&D system, USA).
The main study arm with triplicate wells per group in a 24-well plate: • 1. Blank • 2. PBMC: 0.5% DMSO • 3. PBMC+LPS (5 ug/ml) • 4. PBMC+YY-101 100 uM • 5. PBMC+YY-101 10 uM • 6. PBMC+YY-101 1 uM • 7. PBMC+YY-101 0.1 uM • 8. PBMC+YY-101 0.01 uM • 9. PBMC+LPS (5 ug/ml)+Xiidra®100 uM • 10. PBMC+LPS (5 ug/ml)+Xiidra® 10 uM • 11. PBMC+LPS (5 ug/ml)+Xiidra® 1 uM • 12. PBMC+LPS (5 ug/ml)+Xiidra®0.1 uM • 13. PBMC+LPS (5 ug/ml)+Xiidra®0.01 uM • 14. PBMC+LPS (5 ug/ml)+Xiidra®0.001 uM • 15. PBMC+LPS (5 ug/ml)+YY-101 100 uM • 16. PBMC+LPS (5 ug/ml)+YY-101 10 uM • 17. PBMC+LPS (5 ug/ml)+YY-101 1 uM • 18. PBMC+LPS (5 ug/ml)+YY-101 0.1 uM • 19. PBMC+LPS (5 ug/ml)+YY-101 0.01 uM • 20. PBMC+LPS (5 ug/ml)+YY-101 0.001 uM • 21. PBMC+LPS (5 ug/ml)+YDE-011 100 uM • 22. PBMC+LPS (5 ug/ml)+YDE-011 10 uM • 23. PBMC+LPS (5 ug/ml)+YDE-011 1 uM • 24. PBMC+LPS (5 ug/ml)+YDE-011 0.1 uM • 25. PBMC+LPS (5 ug/ml)+YDE-011 0.01 uM • 26. PBMC+LPS (5 ug/ml)+YDE-011 0.001 uM • 27. PBMC+LPS (5 ug/ml)+YDE-043 100 uM • 28. PBMC+LPS (5 ug/ml)+YDE-043 10 uM • 29. PBMC+LPS (5 ug/ml)+YDE-043 1 uM • 30. PBMC+LPS (5 ug/ml)+YDE-043 0.1 uM • 31. PBMC+LPS (5 ug/ml)+YDE-043 0.01 uM • 32. PBMC+LPS (5 ug/ml)+YDE-043 0.001 uM
Multiplex assay was used to measure 30 cytokines and chemokines. The 1:2, 1:10 and 1:200 diluted cell supernatant and serial dilution of the standard were dispensed into a 96 well plate at 50 ul/well. Then, the pre-mixed cocktail of antibody-coated magnetic beads was dispensed at 50 ul/well and incubated at room temperature for 2 h in a horizontal orbital microplate shaker at 800±500 rpm. The beads were washed using a magnetic device to prevent loss. The biotin-antibody was dispensed in 50 ul of each well and incubated at room temperature for 1 h in a shaker at 800±500 rpm. After washing, streptavidin-PE was added at 50 ul/well and incubated at room temperature for 30 min in a shaker under the same conditions. Finally, after washing, wash buffer (100 ul/well) was added to the plate and incubated in a shaker for 2 min. The Luminex™ 200 setting were set according to the manufacturer's protocol. The data was calculated with a standard five-parameter logistic nonlinear regression analysis of the data (xPonent software 4.2, USA). The levels of cytokine/chemokine are normalized to the live cell counts (1×10^5 cells/mL) and presented as concentrations per mL (pg/mL or ng/mL).

[1] = PBMC + LPS(5 ug/ml) + test article 0.001 uM, Mean
[2] = PBMC + LPS(5 ug/ml) + test article 0.001 uM, single replicates (1st, 2nd, 3rd)
[3] = PBMC + LPS(5 ug/ml) + test article 0.01 uM, Mean
[4] = PBMC + LPS(5 ug/ml) + test article 0.01 uM, single replicates (1st, 2nd, 3rd)
[5] = PBMC + LPS(5 ug/ml) + test article 0.1 uM, Mean
[6] = PBMC + LPS(5 ug/ml) + test article 0.1 uM, single replicates (1st, 2nd, 3rd)
[7] = PBMC + LPS(5 ug/ml) + test article 1 uM, Mean
[8] = PBMC + LPS(5 ug/ml) + test article 1 uM, single replicates (1st, 2nd, 3rd)
[9] = PBMC + LPS(5 ug/ml) + test article 10 uM, Mean
[10] = PBMC + LPS(5 ug/ml) + test article 10 uM, single replicates (1st, 2nd, 3rd)
[11] = PBMC + LPS(5 ug/ml) + test article 100 uM, Mean
[12] = PBMC + LPS(5 ug/ml) + test article 100 uM, single replicates (1st, 2nd, 3rd)

Row | Structure (SMILES) | Concentration, IL-17A [1] [pg/mL] | MFI, Bead name: IL-17A [1] | conc/live cell, IL-17A [1] [pg/10^5] | Concentration, IL-17A [2] | MFI, Bead name: IL-17A [2] | conc/live cell, IL-17A [2] | Concentration, IL-17A [3] [pg/mL] | MFI, Bead name: IL-17A [3] | conc/live cell, IL-17A [3] [pg/10^5] | Concentration, IL-17A [4] | MFI, Bead name: IL-17A [4] | conc/live cell, IL-17A [4] | Concentration, IL-17A [5] [pg/mL] | MFI, Bead name: IL-17A [5] | conc/live cell, IL-17A [5] [pg/10^5] | Concentration, IL-17A [6] | MFI, Bead name: IL-17A [6] | conc/live cell, IL-17A [6] | Concentration, IL-17A [7] [pg/mL] | MFI, Bead name: IL-17A [7] | also measured
1 | CC(C)C[C@H](NC(=O)CNC(=O)[C@H](CC(C)C)NC(=O)[C@H](CCC(N)=O)NC(=O)CNC(=O)[C@@H]1C[C@@H](O)CN1)C(=O)N[C@@H](C)C(=O)NCC(=O)N1CCC[C@H]1C(=O)N[C@@H](CCCCN)C(=O)O [YDE-011] (H-[Hyp]GQLGLAGPK-OH) | 3.3 | 1.8 | 0.6 | 4.3 pg/ml and 2.7 pg/ml (2×) | 2.5 and 1.5 (2×) | 1.0 pg/10^5 and 0.5 pg/10^5 (2×) | 2.1 | 1.2 | 0.4 | 1.0 pg/ml (2×) and 4.3 pg/ml | 0.5 (2×) and 2.5 | 0.2 pg/10^5 (2×) and 0.9 pg/10^5 | 1.6 | 0.8 | 0.3 | 2.7 pg/ml and 1.0 pg/ml (2×) | 1.5 and 0.5 (2×) | 0.4 pg/10^5 and 0.2 pg/10^5 (2×) | 3.8 | 2.2 | conc/live cell, IL-17A [7]: 0.8 pg/10^5; Concentration, IL-17A [8]: 4.3 pg/ml (2×) and 2.7 pg/ml; MFI, Bead name: IL-17A [8]: 2.5 (2×) and 1.5; conc/live cell, IL-17A [8]: 0.8 pg/10^5 and 0.9 pg/10^5 and 0.6 pg/10^5; Concentration, IL-17A [9]: 2.7 pg/mL; MFI, Bead name: IL-17A [9]: 0.8; conc/live cell, IL-17A [9]: 0.3 pg/10^5; Concentration, IL-17A [10]: 2.7 pg/mL; MFI, Bead name: IL-17A [10]: 1.5 (2×) and −0.5; conc/live cell, IL-17A [10]: 0.5 pg/10^5 (2×) and 0.0 pg/10^5; Concentration, IL-17A [11]: 1.0 pg/mL; MFI, Bead name: IL-17A [11]: 0.2; conc/live cell, IL-17A [11]: 0.1 pg/10^5; Concentration, IL-17A [12]: 1.0 pg/mL; MFI, Bead name: IL-17A [12]: 0.5 (2×) and −0.5; conc/live cell, IL-17A [12]: 0.2 pg/10^5 (2×) and 0.0 pg/10^5
2 | CC(C)C[C@H](NC(=O)[C@H](CCC(N)=O)NC(=O)CNC(=O)[C@@H]1C[C@@H](O)CN1)C(=O)NCC(=O)O [YDE-043] (H-[Hyp]GQLG-OH; N-terminus and C-terminus assumed) | 1.0 | 0.2 | 0.2 | 1.0 pg/mL | 0.5 (2×) and −0.5 | 0.2 pg/10^5 (2×) and 0.0 pg/10^5 | 1.0 | 0.5 | 0.2 | 1.0 pg/mL | 0.5 | 0.2 pg/10^5 | 1.6 | 0.8 | 0.3 | 2.7 pg/ml and 1.0 pg/ml (2×) | 1.5 and 0.5 (2×) | 0.5 pg/10^5 and 0.2 pg/10^5 (2×) | 1.9 | 0.5 | conc/live cell, IL-17A [7]: 0.2 pg/10^5; Concentration, IL-17A [8]: 1.0 pg/mL and 2.7 pg/mL; MFI, Bead name: IL-17A [8]: 0.5 and −0.5 and 1.5; conc/live cell, IL-17A [8]: 0.2 pg/10^5 and 0.0 pg/10^5 and 0.5 pg/10^5; Concentration, IL-17A [9]: 1.3 pg/mL; MFI, Bead name: IL-17A [9]: 0.7; conc/live cell, IL-17A [9]: 0.2 pg/10^5; Concentration, IL-17A [10]: 0.1 pg/mL and 2.7 pg/mL and 1.0 pg/mL; MFI, Bead name: IL-17A [10]: 0.0 and 1.5 and 0.5; conc/live cell, IL-17A [10]: 0.0 pg/10^5 and 0.5 pg/10^5 and 0.2 pg/10^5; MFI, Bead name: IL-17A [11]: −0.5; conc/live cell, IL-17A [11]: 0.0 pg/10^5; MFI, Bead name: IL-17A [12]: −0.5; conc/live cell, IL-17A [12]: 0.0 pg/10^5
